This experiment has as its target human tryptase. Briefly: Inhibition of human tryptase (apparent dissociation constant, chromogenic substrate tos-Gly-Pro-arg-pNA). In kind it is biochemical. As to conditions: apparent dissociation constant in presence of substrate; heparin 0.1-50 μg/ml; equilibrium conditions; read-out: Klapp. An excerpt: The documented pathophysiological effects of mast cell tryptase are caused directly by the enzymatic activity of the protease. Accordingly, they are reduced or blocked by inhibitors which inhibit the enzymatic activity of the tryptase. A suitable measure for the affinity of a reversible inhibitor to the target protease is the equilibrium dissociation constant Ki of the enzyme-inhibitor complex. This Ki value can be determined via the effect of the inhibitor on the tryptase-induced cleavage of a chromogenic peptide-p-nitroanilide substrate or a fluorogenic peptide-aminomethylcoumarin substrate.
The dissociation constants for the tryptase-inhibitor complexes are determined under equilibrium conditions in accordance with the general proposals of Bieth (Bieth J G, Pathophysiological Interpretation of kinetic constants of protease inhibitors, Bull. Europ. Physiopath. Resp. 16:183-195, 1980) and the methods of Sommerhoff et al. (Sommerhoff C P et al., A Kazal-type inhibitor of human mast cell tryptase: Isolation from the medical leech Hirudo medicinalis, characterization, and sequence analysis, Biol. Chem. Hoppe-Seyler 375: 685-694, 1994).
Human tryptase is isolated from lung tissue or prepared recombinantly; the specific activity of the protease, determined by titration, is usually greater than 85% of the theoretical value. In the presence of heparin (0.1-50 μg/ml) for stabilizing the protease, constant amounts of the tryptase are incubated with increasing amounts of the inhibitors. After an equilibrium between the reaction partners has formed, the remaining enzyme activity after addition of the peptide-p-nitroanilide substrate tos-Gly-Pro-arg-pNA is determined and the cleavage of the latter is monitored at 405 nm for 3 min. Alternatively, the remaining enzymatic activity can also be determined using fluorogenic substrates. The apparent dissociation constants Kiapp (i.e. in the presence of substrate) are subsequently determined by adapting the enzyme rates to the general equation for reversible inhibitors (Morrison J F, Kinetics of the reversible inhibition of enzymecatalyzed reactions by tight-binding inhibitors, Biochim. Biophys. Acta 185, 269-286, 1969) using non-linear regression:
V1V0=1−{Et+It+Kiapp−[(Et+It+Kiapp)^2−4EtIt]^½}/2Et
V1 and V0 are the rates in the presence and absence, respectively, of the inhibitor, and Et and It are the tryptase and inhibitor concentrations, respectively.
The apparent dissociation constants determined for the compounds according to the invention are shown in Table A below, where the numbers of the compounds correspond to the numbers of the compounds in the examples.

Counter-ions that a name gives are not always drawn.

Consider `NCc1ccc(CNC(=O)N2CCN(C(=O)CN3CCC(=O)N(CC(=O)N4CCN(C(=O)NCc5ccc(CN)cc5)CC4)CCC3=O)CC2)cc1` [Compound 1, 1,5-bis-{2-[4-(4-Aminomethylbenzylaminocarbonyl)piperazin-1-yl]-2-oxoethyl}perhydro-1,5-diazocin-2,6-dione Dihydrochloride], for which the Ki was determined as 2.6 nM. Turning to `NCc1ccc(CCC(=O)N2CCN(C(=O)CN3CCC(=O)N(CC(=O)N4CCN(C(=O)CCc5ccc(CN)cc5)CC4)CCC3=O)CC2)cc1` [Compound 2, 1,5-bis-{2-[4-(3-(4-aminomethylphenyl)proplonyl)piperazin-1-yl]-2-oxoethyl}perhydro-1,5-diazocin-2,6-dione Dihydrochloride], the Ki is 1.2 nM. Consider `NCc1cccc(CCC(=O)N2CCN(C(=O)CN3CCC(=O)N(CC(=O)N4CCN(C(=O)CCc5cccc(CN)c5)CC4)CCC3=O)CC2)c1` [Compound 3, 1,5-bis-{2-[4-(3-(3-aminomethylphenyl)proplonyl)piperazin-1-yl]-2-oxoethyl}perhydro-1,5-diazocin-2,6-dione Dihydrochloride], for which the Ki was 3.3 nM.

With `NCc1ccc(OCC(=O)N2CCN(C(=O)CN3CCC(=O)N(CC(=O)N4CCN(C(=O)COc5ccc(CN)cc5)CC4)CCC3=O)CC2)cc1` [Compound 4, 1,5-bis-{2-[4-(2-(4-Aminomethylphenoxy)acetyl)perazin-1-yl]-2-oxoethyl}perhydro-1.5-diazocin-2,6-dione Dihydrochloride], the Ki was determined as 0.8 nM.

Source of the values: patent US6673786B1, “Tryptase inhibitors” (Altana Pharma AG, priority 1999, dated 2004).
